In assay [1] the target is Recombinant human soluble BACE1 catalytic domain (Homo sapiens (Human), UniProt P56817). The assay can be described thus: BACE1 HTRF FRET Assay. Format: biochemical. The conditions noted are these: for Ki: Ki calculated from IC50 using the Cheng-Prusoff equation, QSY7-APPswe-Eu substrate, pH 5.0, read-out: BACE-1 Ki. The text has this:
Reagents: Na^+-Acetate pH 5.0; 1% Brij-35; Glycerol; Dimethyl Sulfoxide (DMSO); Recombinant human soluble BACE1 catalytic domain (>95% pure); APP Swedish mutant peptide substrate (QSY7-APP^swe-Eu): QSY7-EISEVNLDAEFC-Europium-amide.
A homogeneous time-resolved FRET assay can be used to determine IC50 values for inhibitors of the soluble human BACE1 catalytic domain. This assay monitors the increase of 620 nm fluorescence that resulted from BACE1 cleavage of an APPswedish APP^swe mutant peptide FRET substrate (QSY7-EISEVNLDAEFC-Europium-amide). This substrate contains an N-terminal QSY7 moiety that serves as a quencher of the C-terminal Europium fluorophore (620 nm Em). In the absence of enzyme activity, 620 nm fluorescence is low in the assay and increased linearly over 3 hours in the presence of uninhibited BACE1 enzyme. Inhibition of BACE1 cleavage of the QSY7-APP^swe-Eu substrate by inhibitors is manifested as a suppression of 620 nm fluorescence.
Varying concentrations of inhibitors at 3× the final desired concentration in a volume of 10 ul are preincubated with purified human BACE1 catalytic domain (3 nM in 10 μl) for 30 minutes at 30° C. in reaction buffer containing 20 mM Na-Acetate pH 5.0, 10% glycerol, 0.1% Brij-35 and 7.5% DSMO. Reactions are initiated by addition of 10 μl of 600 nM QSY7-APP^swe-Eu substrate (200 nM final) to give a final reaction volume of 30 μl in a 384 well Nunc HTRF plate. The reactions are incubated at 30° C. for 1.5 hours. The 620 nm fluorescence is then read on a Rubystar HTRF plate reader (BMG Labtechnologies) using a 50 millisecond delay followed by a 400 millisecond acquisition time window. Inhibitor IC50 values are derived from non-linear regression analysis of concentration response curves. Ki values are then calculated from IC50 values using the Cheng-Prusoff equation using a previously determined […] of 8 μM for the QSY7-APP^swe-Eu substrate at BACE1.

The target in assay [2] is purified human autoBACE-2 (Homo sapiens (Human), UniProt Q9Y5Z0). The assay is described as follows: BACE-2 Assay (BACE-HTRF assay). In kind it is biochemical. Particulars: Ki calculated from IC50 using the Cheng-Prusoff equation; QSY7-EISEVNLDAEFC-Eu-amide substrate, pH 5.0. Here is the method: Inhibitor IC50s at purified human autoBACE-2 are determined in a time-resolved endpoint proteolysis assay that measures hydrolysis of the QSY7-EISEVNLDAEFC-Eu-amide FRET peptide substrate (BACE-HTRF assay). BACE-mediated hydrolysis of this peptide results in an increase in relative fluorescence (RFU) at 620 nm after excitation with 320 nm light. Inhibitor compounds, prepared at 3× the desired final concentration in 1×BACE assay buffer (20 mM sodium acetate pH 5.0, 10% glycerol, 0.1% Brij-35) supplemented with 7.5% DMSO are preincubated with an equal volume of autoBACE-2 enzyme diluted in 1×BACE assay buffer (final enzyme concentration 1 nM) in black 384-well NUNC plates for 30 minutes at 30° C. […] DMSO is present at 5% final concentration in the assay. Following laser excitation of sample wells at 320 nm, the fluorescence signal at 620 nm is collected for 400 ms following a 50 μs delay on a RUBYstar HTRF plate reader (BMG Labtechnologies). Raw RFU data is normalized to maximum (1.0 nM BACE/DMSO) and minimum (no enzyme/DMSO) RFU values. IC50s are determined by nonlinear regression analysis (sigmoidal dose response, variable slope) of percent inhibition data with minimum and maximum values set to 0 and 100 percent respectively. Similar IC50s are obtained when using raw RFU data. The Ki values are calculated from the IC50 using the Cheng-Prusoff equation.
purified human autoBACE-2, sequence (Q9Y5Z0 63-518): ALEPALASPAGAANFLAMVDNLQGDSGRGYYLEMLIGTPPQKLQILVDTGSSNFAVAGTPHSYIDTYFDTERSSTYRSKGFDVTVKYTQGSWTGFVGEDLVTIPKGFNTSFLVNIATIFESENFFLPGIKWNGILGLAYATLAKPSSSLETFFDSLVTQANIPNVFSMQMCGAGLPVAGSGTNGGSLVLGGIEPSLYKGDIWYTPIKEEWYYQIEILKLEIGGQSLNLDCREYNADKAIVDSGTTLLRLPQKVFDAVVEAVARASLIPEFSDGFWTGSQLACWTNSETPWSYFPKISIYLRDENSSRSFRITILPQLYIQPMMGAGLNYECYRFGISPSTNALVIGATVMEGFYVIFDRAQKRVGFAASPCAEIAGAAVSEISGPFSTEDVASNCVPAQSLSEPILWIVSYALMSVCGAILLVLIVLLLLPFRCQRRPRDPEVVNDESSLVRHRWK

Recombinant human soluble BACE1 catalytic domain, sequence (P56817 75-416): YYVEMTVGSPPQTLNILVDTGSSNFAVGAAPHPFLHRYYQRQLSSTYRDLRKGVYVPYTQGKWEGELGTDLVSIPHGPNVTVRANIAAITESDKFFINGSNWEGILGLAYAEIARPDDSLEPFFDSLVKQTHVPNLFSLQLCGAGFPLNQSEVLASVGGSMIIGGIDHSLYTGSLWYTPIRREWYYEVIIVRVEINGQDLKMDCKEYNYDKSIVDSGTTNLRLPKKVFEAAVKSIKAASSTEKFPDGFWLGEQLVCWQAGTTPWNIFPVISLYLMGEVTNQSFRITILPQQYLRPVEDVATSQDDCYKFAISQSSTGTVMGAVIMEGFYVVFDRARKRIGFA

In general, Ki refers to a dissociation constant, usually derived from enzyme kinetics or from competition with a known ligand. `CC1(C)C[C@@H]2[C@](c3cc(OC4CCC4)ccc3F)(CO1)NC(=N)C(C)(C)S2(=O)=O` [Example 24]: the inhibitory constant (Ki) in assay [1] was 183 nM; in assay [2], 109 nM.
In the case of `CC1(C)C(=N)N[C@@]2(c3cc(OCC4CC4)ccc3F)CO[C@@H](c3ccc(F)cc3)C[C@H]2S1(=O)=O` [Example 13, (4aS,7R,8aR)-4a-(5-(cyclopropylmethoxy)-2-fluorophenyl)-7-(4-fluorophenyl)-3-imino-2,2-dimethyloctahydropyrano[4,3-b][1,4]thiazine 1,1-dioxide], the Ki in assay [1] is 115 nM; in assay [2] it was 11.7 nM.
For `C[C@@H]1C[C@@H]2[C@](c3cc(OCC4CC4)ccc3F)(CO1)NC(=N)C(C)(C)S2(=O)=O` [Example 8, (4aS,7R,8aR)-4a-(5-(cyclopropylmethoxy)-2-fluorophenyl)-3-imino-2,2,7-trimethyloctahydropyrano[4,3-b][1,4]thiazine 1,1-dioxide], in that order: 4480 nM and 1180 nM.
Broadly, the inhibition is how much of the control response was suppressed. Turning to `C[C@@H]1C[C@@H]2[C@](c3ccccc3F)(CO1)NC(=N)C(C)(C)S2(=O)=O` [Example 2, (4aS,7R,8aR)-4a-(2-fluorophenyl)-3-imino-2,2,7-trimethyloctahydropyrano[4,3-b][1,4]thiazine 1,1-dioxide], the inhibition at 10 µM in assay [1] (@10 μM, read-out: BACE-1 inhibition (printed in BACE-1 Ki column)) was 50%. For the same molecule, in assay [2], the inhibition constant (Ki) was 6260 nM.
`C[C@H]1C[C@@H]2[C@](c3cc(Oc4ncccc4F)ccc3F)(CO1)NC(=N)C(C)(C)S2(=O)=O` [Example 5, (4aS,7S,8aR)-4a-(2-fluoro-5-((3-fluoropyridin-2-yl)oxy)phenyl)-3-imino-2,2,7-trimethyloctahydropyrano[4,3-b][1,4]thiazine 1,1-dioxide]: the inhibition constant (Ki) in assay [1] is 17.5 nM; in assay [2] it was 4.9 nM.
For `COc1ccc(F)c([C@]23CO[C@@H](c4ccc(F)cc4)C[C@H]2S(=O)(=O)C(C)(C)C(=N)N3)c1` [Example 12, (4aS,7R,8aR)-4a-(2-fluoro-5-methoxyphenyl)-7-(4-fluorophenyl)-3-imino-2,2-dimethyloctahydropyrano[4,3-b][1,4]thiazine 1,1-dioxide], the Ki in assay [1] is 184 nM; in assay [2], 96.3 nM.
For `COc1ccc(F)c([C@]23CO[C@@H](C)C[C@H]2S(=O)(=O)C(C)(C)C(=N)N3)c1` [Example 10, (4aS,7S,8aR)-4a-(2-fluoro-5-methoxyphenyl)-3-imino-2,2,7-trimethyloctahydropyrano[4,3-b][1,4]thiazine 1,1-dioxide], in that order: 681 nM and 249 nM.
For `CC1(C)C[C@@H]2[C@](c3cc(OCC4CC4)ccc3F)(CO1)NC(=N)C(C)(C)S2(=O)=O` [Example 22, (4aS,8aR)-4a-[5-(cyclopropylmethoxy)-2-fluorophenyl]-2,2,7,7-tetramethyltetrahydro-2H,5H-pyrano[4,3-b][1,4]thiazin-3(4H)-imine 1,1-dioxide], in that order: 120 nM and 35.6 nM.
For `C[C@H]1C[C@@H]2[C@](c3cc(Br)ccc3F)(CO1)NC(=N)C(C)(C)S2(=O)=O` [Example 3, (4aS,7S,8aR)-4a-(5-bromo-2-fluorophenyl)-3-imino-2,2,7 trimethyloctahydropyrano[4,3-b][1,4]thiazine 1,1-dioxide], in that order: 1210 nM and 399 nM.
With `CC1(C)C(=N)N[C@@]2(c3cc(Oc4cc(C#N)ccn4)ccc3F)CO[C@@H](c3ccc(F)cc3)C[C@H]2S1(=O)=O` [Example 15, 2-(4-fluoro-3-((4aS,7R,8aR)-7-(4-fluorophenyl)-3-imino-2,2-dimethyl-1,1-dioxidooctahydropyrano[4,3-b][1,4]thiazin-4a-yl)phenoxy)isonicotinonitrile], the values for the Ki in assay [1] and in assay [2] were 17.9 nM and 19.8 nM, respectively.
For `CC1(C)C[C@@H]2[C@](c3ccccc3F)(CO1)NC(=N)C(C)(C)S2(=O)=O` [Example 17, (4aS,8aR)-4a-(2-fluorophenyl)-2,2,7,7-tetramethyltetrahydro-2H,5H-pyrano[4,3-b][1,4]thiazin-3(4H)-imine 1,1-dioxide], the Ki was 300 nM in assay [1] and 293 nM in assay [2].
In the same order, the values of `CC1(C)C[C@@H]2[C@](c3cc(Oc4ncccc4F)ccc3F)(CO1)NC(=N)C(C)(C)S2(=O)=O` [Example 18, (4aS,8aR)-4a-{2-fluoro-5-[(3-fluoropyridin-2-yl)oxy]phenyl}-2,2,7,7-tetramethyltetrahydro-2H,5H-pyrano[4,3-b][1,4]thiazin-3(4H)-imine 1,1-dioxide] are 22.4 nM and 42.2 nM.
For `CC(C)COc1ccc(F)c([C@]23CO[C@@H](C)C[C@H]2S(=O)(=O)C(C)(C)C(=N)N3)c1` [Example 4, (4aS,7S,8aR)-4a-(2-fluoro-5-isobutoxyphenyl)-3-imino-2,2,7-trimethyloctahydropyrano[4,3-b][1,4]thiazine 1,1-dioxide], in that order: 354 nM and 31.6 nM.
In the same order, the values of `C[C@H]1C[C@@H]2[C@](c3cc(Oc4ncc(F)cc4F)ccc3F)(CO1)NC(=N)C(C)(C)S2(=O)=O` [Example 7, (4aS,7S,8aR)-4a-(5-((3,5-difluoropyridin-2-yl)oxy)-2-fluorophenyl)-3-imino-2,2,7-trimethyloctahydropyrano[4,3-b][1,4]thiazine 1,1-dioxide] are 53.6 nM and 28.9 nM.
As for `CC(C)[C@H]1C[C@@H]2[C@](c3ccccc3F)(CO1)NC(=N)C(C)(C)S2(=O)=O` [Example 25, (4aS,7R,8aR)-4a-(2-fluorophenyl)-2,2-dimethyl-7-(propan-2-yl)tetrahydro-2H,5H-pyrano[4,3-b][1,4]thiazin-3(4H)-imine 1,1-dioxide], the inhibition constant (Ki) in assay [1] is 185 nM; in assay [2] it was 195 nM.
For `CC1(C)C[C@@H]2[C@](c3cc(Oc4ncc(F)cc4F)ccc3F)(CO1)NC(=N)C(C)(C)S2(=O)=O` [Example 20, (4aS,8aR)-4a-{5-[(3,5-difluoropyridin-2-yl)oxy]-2-fluorophenyl}-2,2,7,7-tetramethyltetrahydro-2H,5H-pyrano[4,3-b][1,4]thiazin-3(4H)-imine 1,1-dioxide], in that order: 53.2 nM and 102 nM.
For `COc1ccc(F)c([C@]23CO[C@@H](CO)C[C@H]2S(=O)(=O)C(C)(C)C(=N)N3)c1` [Example 16, (4aS,7R,8aR)-4a-(2-fluoro-5-methoxyphenyl)-7-(hydroxymethyl)-3-imino-2,2-dimethyloctahydropyrano[4,3-b][1,4]thiazine 1,1-dioxide], in that order: 2860 nM and 2020 nM.
For `CC1(C)C[C@@H]2[C@](c3cc(Oc4cc(C#N)ccn4)ccc3F)(CO1)NC(=N)C(C)(C)S2(=O)=O` [Example 19], in that order: 33.8 nM and 65.2 nM.
Regarding `CC1(C)C(=N)N[C@@]2(c3cc(Oc4ncccc4F)ccc3F)CO[C@@H](c3ccc(F)cc3)C[C@H]2S1(=O)=O` [Example 14, (4aS,7R,8aR)-4a-(2-fluoro-5-((3-fluoropyridin-2-yl)oxy)phenyl)-7-(4-fluorophenyl)-3-imino-2,2-dimethyloctahydropyrano[4,3-b][1,4]thiazine 1,1-dioxide], the inhibition constant (Ki) was 3.9 nM in assay [1] and 1.9 nM in assay [2].
For `CC(C)COc1ccc(F)c([C@]23COC(C)(C)C[C@H]2S(=O)(=O)C(C)(C)C(=N)N3)c1` [Example 23, (4aS,8aR)-4a-[2-fluoro-5-(2-methylpropoxy)phenyl]-2,2,7,7-tetramethyltetrahydro-2H,5H-pyrano[4,3-b][1,4]thiazin-3(4H)-imine 1,1-dioxide], in that order: 172 nM and 66.7 nM.
